Reference: PMC7531004, “Discovery of gramicidin A analogues with altered activities by multidimensional screening of a one-bead-one-compound library” (Nature Communications, 2020)
Where a SMILES comes first, the peptide text is derived from it. [ ]: non-standard residue; d: D form. The star is where a group is joined. NHCH2CH2OH = OCCN*; For = O=C*

Legend:
[1] = H+/Na+ transport assay of bead-derived peptides (one-point); format: biochemical; set-up: key: relative activity; mean of two control wells = 1.00; details: bead-derived peptide solution, EYPC/EYPG LUVs;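 further: relative to parent gramicidin A activity set to 1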
Summary of the method: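 Miniaturized 96-well format. LUVs with entrapped pyranine (1.0 mM) were exposed to peptide for 30 min at RT. Intensities were expressed relative to full lysis by Triton X-100 and no treatment, with control-well mean = 1.00.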

[2] = cell viability/%
Summary of the method: (§1)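 Peptide stocks diluted 250× in growth medium; P388 cells 1 × 10^4 cells/mL final; 37 °C, 5% CO2, 92 h. WST-1 + 1-methoxy PMS, 4 h, A415. Output: % viability.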

[3] = tested on: Streptococcus pyogenes SSI-9; experiment: Antibacterial activity assay of bead-derived peptides (three concentrations); format: cell-based; set-up: key: +++: inhibition by the 640-fold diluted peptide solution; ++: inhibition by the 160-fold diluted solution; +: inhibition by the 40-fold diluted solution; -: no inhibition; details: S. pyogenes, bead-derived peptide solution, three concentrations
Summary of the method: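 First, each peptide stock was diluted 4- and 16-fold in DMSO; next, the three solutions were mixed with S. pyogenes SSI-9 suspension (2 × 10^5 CFU) in cation-adjusted Mueller Hinton Broth plus 5% laked horse blood; finally, plates stood 18 h at 37 °C before checking for grown-cell precipitation.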

[4] = tested on: P388 mouse leukemia cells; details: 92 h
Summary of the method: as §1

| Compound | H+/Na+ transport activity normalized against the value of 1 (1.00) [1] | viability [2] | antibacterial activity [3] | cell viability/% [4] |
| --- | --- | --- | --- | --- |
| CC(C)C[C@@H](NC(=O)[C@H](Cc1c[nH]c2ccccc12)NC(=O)[C@H](NC(=O)[C@@H](NC(=O)[C@H](NC(=O)[C@H](C)NC(=O)[C@H](NC(=O)[C@H](C)NC(=O)CNC(=O)[C@@H](NC=O)C(C)C)C(C)C)[C@H](C)O)C(C)C)C(C)C)C(=O)N[C@@H](Cc1c[nH]c2ccccc12)C(=O)N[C@H](CC(C)C)C(=O)N[C@@H](Cc1c[nH]c2ccccc12)C(=O)N[C@@H](C(=O)N[C@@H](Cc1c[nH]c2ccccc12)C(=O)NCCO)C(C)C [compound 8141] (For-VGA[dV]A[dT]V[dV]W[dL]W[dL]W[dV]W-NHCH2CH2OH) | 1.03 | 100% | - |  |
| CC(C)C[C@@H](NC(=O)[C@H](C)NC(=O)CNC(=O)[C@@H](NC=O)C(C)C)C(=O)N[C@@H](C)C(=O)N[C@H](CC(C)C)C(=O)N[C@H](C(=O)N[C@@H](C(=O)N[C@@H](Cc1c[nH]c2ccccc12)C(=O)N[C@H](CC(C)C)C(=O)N[C@@H](Cc1c[nH]c2ccccc12)C(=O)N[C@H](CC(C)C)C(=O)N[C@@H](Cc1c[nH]c2ccccc12)C(=O)N[C@@H](C(=O)N[C@@H](Cc1c[nH]c2ccccc12)C(=O)NCCO)C(C)C)C(C)C)C(C)C [compound 1796] (For-VGA[dL]A[dL]V[dV]W[dL]W[dL]W[dV]W-NHCH2CH2OH) | 1.09 | 0% | - |  |
| CC(C)C[C@@H](NC(=O)[C@H](C)NC(=O)CNC(=O)[C@@H](NC=O)C(C)C)C(=O)N[C@@H](C)C(=O)N[C@@H](C(=O)N[C@H](C(=O)N[C@H](CC(C)C)C(=O)N[C@@H](Cc1c[nH]c2ccccc12)C(=O)N[C@@H](C(=O)N[C@@H](Cc1c[nH]c2ccccc12)C(=O)N[C@@H](C(=O)N[C@@H](Cc1c[nH]c2ccccc12)C(=O)N[C@@H](C(=O)N[C@@H](Cc1c[nH]c2ccccc12)C(=O)NCCO)C(C)C)C(C)C)C(C)C)C(C)C)[C@H](C)O [compound 3733] (For-VGA[dL]A[dT]V[dL]W[dV]W[dV]W[dV]W-NHCH2CH2OH) | 1.11 | 100% | - |  |
| CC(C)[C@H](NC=O)C(=O)NCC(=O)N[C@@H](C)C(=O)N[C@@H](C(=O)N[C@@H](C)C(=O)N[C@@H](C(=O)N[C@H](C(=O)N[C@@H](C(=O)N[C@@H](Cc1c[nH]c2ccccc12)C(=O)N[C@@H](C(=O)N[C@@H](Cc1c[nH]c2ccccc12)C(=O)N[C@@H](C(=O)N[C@@H](Cc1c[nH]c2ccccc12)C(=O)N[C@@H](C(=O)N[C@@H](Cc1c[nH]c2ccccc12)C(=O)NCCO)C(C)C)C(C)C)C(C)C)C(C)C)C(C)C)C(C)C)[C@H](C)O [compound 11453] (For-VGA[dT]A[dV]V[dV]W[dV]W[dV]W[dV]W-NHCH2CH2OH) | 1.04 |  | - | 49.2% |
| CC(C)C[C@@H](NC(=O)[C@H](C)NC(=O)CNC(=O)[C@@H](NC=O)C(C)C)C(=O)N[C@@H](C)C(=O)N[C@H](CC(C)C)C(=O)N[C@H](C(=O)N[C@H](CC(C)C)C(=O)N[C@@H](Cc1c[nH]c2ccccc12)C(=O)N[C@H](CC(C)C)C(=O)N[C@@H](Cc1c[nH]c2ccccc12)C(=O)N[C@H](CC(C)C)C(=O)N[C@@H](Cc1c[nH]c2ccccc12)C(=O)N[C@@H](C(=O)N[C@@H](Cc1c[nH]c2ccccc12)C(=O)NCCO)C(C)C)C(C)C [compound 6639] (For-VGA[dL]A[dL]V[dL]W[dL]W[dL]W[dV]W-NHCH2CH2OH) | 1.01 |  | + | 0.0% |
| CC(C)C[C@@H](NC(=O)[C@H](C)NC(=O)[C@H](NC(=O)[C@H](C)NC(=O)CNC(=O)[C@@H](NC=O)C(C)C)C(C)C)C(=O)N[C@H](C(=O)N[C@H](CC(C)C)C(=O)N[C@@H](Cc1c[nH]c2ccccc12)C(=O)N[C@@H](C(=O)N[C@@H](Cc1c[nH]c2ccccc12)C(=O)N[C@@H](C(=O)N[C@@H](Cc1c[nH]c2ccccc12)C(=O)N[C@@H](C(=O)N[C@@H](Cc1c[nH]c2ccccc12)C(=O)NCCO)C(C)C)C(C)C)C(C)C)C(C)C [compound 2832] (For-VGA[dV]A[dL]V[dL]W[dV]W[dV]W[dV]W-NHCH2CH2OH) | 1.23 |  | + | 17.7% |
| CC(C)C[C@@H](NC(=O)[C@H](C)NC(=O)CNC(=O)[C@@H](NC=O)C(C)C)C(=O)N[C@@H](C)C(=O)N[C@@H](C(=O)N[C@H](C(=O)N[C@@H](C(=O)N[C@@H](Cc1c[nH]c2ccccc12)C(=O)N[C@@H](C(=O)N[C@@H](Cc1c[nH]c2ccccc12)C(=O)N[C@@H](C(=O)N[C@@H](Cc1c[nH]c2ccccc12)C(=O)N[C@@H](C(=O)N[C@@H](Cc1c[nH]c2ccccc12)C(=O)NCCO)C(C)C)C(C)C)C(C)C)C(C)C)C(C)C)C(C)C [compound 9610] (For-VGA[dL]A[dV]V[dV]W[dV]W[dV]W[dV]W-NHCH2CH2OH) | 1.14 |  | + | 100.0% |
| CNC(=O)C[C@@H](NC(=O)[C@H](Cc1c[nH]c2ccccc12)NC(=O)[C@@H](CC(C)C)NC(=O)[C@@H](NC(=O)[C@@H](CC(C)C)NC(=O)[C@H](C)NC(=O)[C@H](NC(=O)[C@H](C)NC(=O)CNC(=O)[C@@H](NC=O)C(C)C)C(C)C)C(C)C)C(=O)N[C@@H](Cc1c[nH]c2ccccc12)C(=O)N[C@@H](C(=O)N[C@@H](Cc1c[nH]c2ccccc12)C(=O)N[C@@H](C(=O)N[C@@H](Cc1c[nH]c2ccccc12)C(=O)NCCO)C(C)C)C(C)C [compound 5380] (For-VGA[dV]A[dL]V[dL]W[dD](NHMe)W[dV]W[dV]W-NHCH2CH2OH) | 1.05 |  | - | 100.0% |
| CNC(=O)C[C@@H](NC(=O)[C@@H](NC(=O)[C@@H](CC(C)C)NC(=O)[C@H](C)NC(=O)[C@H](NC(=O)[C@H](C)NC(=O)CNC(=O)[C@@H](NC=O)C(C)C)C(C)C)C(C)C)C(=O)N[C@@H](Cc1c[nH]c2ccccc12)C(=O)N[C@@H](C(=O)N[C@@H](Cc1c[nH]c2ccccc12)C(=O)N[C@@H](C(=O)N[C@@H](Cc1c[nH]c2ccccc12)C(=O)N[C@@H](C(=O)N[C@@H](Cc1c[nH]c2ccccc12)C(=O)NCCO)C(C)C)C(C)C)C(C)C [compound 8662] (For-VGA[dV]A[dL]V[dD](NHMe)W[dV]W[dV]W[dV]W-NHCH2CH2OH) | 1.08 |  | - | 61.0% |
| CC(C)C[C@@H](NC(=O)[C@H](C)NC(=O)[C@H](NC(=O)[C@H](C)NC(=O)CNC(=O)[C@@H](NC=O)C(C)C)C(C)C)C(=O)N[C@H](C(=O)N[C@@H](C(=O)N[C@@H](Cc1c[nH]c2ccccc12)C(=O)N[C@@H](C(=O)N[C@@H](Cc1c[nH]c2ccccc12)C(=O)N[C@H](CC(C)C)C(=O)N[C@@H](Cc1c[nH]c2ccccc12)C(=O)N[C@H](CC(C)C)C(=O)N[C@@H](Cc1c[nH]c2ccccc12)C(=O)NCCO)C(C)C)C(C)C)C(C)C [compound 12099] (For-VGA[dV]A[dL]V[dV]W[dV]W[dL]W[dL]W-NHCH2CH2OH) | 1.05 |  | + | 85.4% |
| CC(C)C[C@@H](NC(=O)[C@H](C)NC(=O)[C@H](NC(=O)[C@H](C)NC(=O)CNC(=O)[C@@H](NC=O)C(C)C)C(C)C)C(=O)N[C@H](C(=O)N[C@@H](C(=O)N[C@@H](Cc1c[nH]c2ccccc12)C(=O)N[C@@H](C(=O)N[C@@H](Cc1c[nH]c2ccccc12)C(=O)N[C@H](CC(C)C)C(=O)N[C@@H](Cc1c[nH]c2ccccc12)C(=O)N[C@@H](C(=O)N[C@@H](Cc1c[nH]c2ccccc12)C(=O)NCCO)C(C)C)C(C)C)[C@H](C)O)C(C)C [compound 4710] (For-VGA[dV]A[dL]V[dT]W[dV]W[dL]W[dV]W-NHCH2CH2OH) | 1.06 |  | - | 100.0% |
| CC(C)C[C@@H](NC(=O)[C@H](Cc1c[nH]c2ccccc12)NC(=O)[C@H](NC(=O)[C@H](Cc1c[nH]c2ccccc12)NC(=O)[C@@H](CC(C)C)NC(=O)[C@@H](NC(=O)[C@H](NC(=O)[C@H](C)NC(=O)[C@H](NC(=O)[C@H](C)NC(=O)CNC(=O)[C@@H](NC=O)C(C)C)[C@H](C)O)C(C)C)C(C)C)C(C)C)C(=O)N[C@@H](Cc1c[nH]c2ccccc12)C(=O)N[C@@H](C(=O)N[C@@H](Cc1c[nH]c2ccccc12)C(=O)NCCO)C(C)C [compound 182] (For-VGA[dT]A[dV]V[dL]W[dV]W[dL]W[dV]W-NHCH2CH2OH) | 1.16 |  | - | 100.0% |
| CC(C)C[C@@H](NC(=O)[C@H](C)NC(=O)[C@H](NC(=O)[C@H](C)NC(=O)CNC(=O)[C@@H](NC=O)C(C)C)[C@H](C)O)C(=O)N[C@H](C(=O)N[C@H](CC(C)C)C(=O)N[C@@H](Cc1c[nH]c2ccccc12)C(=O)N[C@@H](C(=O)N[C@@H](Cc1c[nH]c2ccccc12)C(=O)N[C@@H](C(=O)N[C@@H](Cc1c[nH]c2ccccc12)C(=O)N[C@H](CC(C)C)C(=O)N[C@@H](Cc1c[nH]c2ccccc12)C(=O)NCCO)C(C)C)C(C)C)C(C)C [compound 2242] (For-VGA[dT]A[dL]V[dL]W[dV]W[dV]W[dL]W-NHCH2CH2OH) | 1.15 |  | - | 100.0% |
